The values below come from ChEMBL document CHEMBL1138747, “Synthesis and structure--activity relationship in a class of indolebutylpiperazines as dual 5-HT(1A) receptor agonists and serotonin reuptake inhibitors” (J Med Chem, 2004).

One experiment has as its target D(3) dopamine receptor (Rattus norvegicus, UniProt P19020). The experiment in a line: Inhibition of rat dopamine D3 receptor.
The target of experiment [1] is T1, Adrenergic receptor alpha-1 (Homo sapiens, UniProt P35348+P25100+P35368).
T1 sequence (P35348 whole entry): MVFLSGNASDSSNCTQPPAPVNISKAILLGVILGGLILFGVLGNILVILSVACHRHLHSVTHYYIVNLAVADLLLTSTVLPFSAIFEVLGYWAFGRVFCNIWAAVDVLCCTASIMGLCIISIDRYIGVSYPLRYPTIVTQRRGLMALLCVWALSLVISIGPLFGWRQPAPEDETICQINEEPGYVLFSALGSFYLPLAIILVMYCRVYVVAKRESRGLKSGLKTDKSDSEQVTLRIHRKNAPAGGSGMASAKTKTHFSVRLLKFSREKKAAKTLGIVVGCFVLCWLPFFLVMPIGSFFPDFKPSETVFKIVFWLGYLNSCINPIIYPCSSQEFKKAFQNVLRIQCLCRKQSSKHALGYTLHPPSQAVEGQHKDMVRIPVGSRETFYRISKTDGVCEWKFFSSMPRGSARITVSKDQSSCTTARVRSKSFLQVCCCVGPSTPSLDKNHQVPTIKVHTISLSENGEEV
T1 sequence (P25100 whole entry): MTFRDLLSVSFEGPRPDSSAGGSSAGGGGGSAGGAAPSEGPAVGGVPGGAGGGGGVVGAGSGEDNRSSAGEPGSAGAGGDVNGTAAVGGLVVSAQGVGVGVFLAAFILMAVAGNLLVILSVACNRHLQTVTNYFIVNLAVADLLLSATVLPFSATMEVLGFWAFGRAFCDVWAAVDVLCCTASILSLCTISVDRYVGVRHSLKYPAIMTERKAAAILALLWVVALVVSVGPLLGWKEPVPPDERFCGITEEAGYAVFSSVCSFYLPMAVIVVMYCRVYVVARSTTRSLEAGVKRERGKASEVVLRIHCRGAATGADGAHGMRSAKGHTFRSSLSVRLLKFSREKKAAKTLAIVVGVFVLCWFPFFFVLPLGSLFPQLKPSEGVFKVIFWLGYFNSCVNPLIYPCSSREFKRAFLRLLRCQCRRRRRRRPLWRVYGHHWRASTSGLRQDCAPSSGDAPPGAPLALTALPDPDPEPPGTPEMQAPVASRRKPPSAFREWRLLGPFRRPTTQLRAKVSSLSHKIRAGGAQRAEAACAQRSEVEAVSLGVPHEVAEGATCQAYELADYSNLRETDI
T1 sequence (P35368 whole entry): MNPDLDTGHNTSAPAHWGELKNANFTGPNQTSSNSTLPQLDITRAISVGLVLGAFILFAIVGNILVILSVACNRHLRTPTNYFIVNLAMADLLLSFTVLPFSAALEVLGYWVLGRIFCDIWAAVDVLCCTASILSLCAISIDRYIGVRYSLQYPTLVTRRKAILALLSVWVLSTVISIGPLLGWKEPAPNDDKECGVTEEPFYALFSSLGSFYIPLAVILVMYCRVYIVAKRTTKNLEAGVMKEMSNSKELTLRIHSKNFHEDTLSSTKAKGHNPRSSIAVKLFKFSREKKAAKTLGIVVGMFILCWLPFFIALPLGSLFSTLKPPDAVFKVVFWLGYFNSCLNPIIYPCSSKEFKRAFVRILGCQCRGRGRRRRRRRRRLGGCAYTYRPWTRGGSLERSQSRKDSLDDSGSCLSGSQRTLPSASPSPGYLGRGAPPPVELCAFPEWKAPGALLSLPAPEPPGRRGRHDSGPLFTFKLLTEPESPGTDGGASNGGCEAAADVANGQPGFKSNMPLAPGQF
The experiment in a line: Inhibition of alpha-1-adrenergic receptor. It is filed as protein assay.

Another experiment has as its target T2, D(4) dopamine receptor (Rattus norvegicus, UniProt P30729).
T2 sequence (P30729 whole entry): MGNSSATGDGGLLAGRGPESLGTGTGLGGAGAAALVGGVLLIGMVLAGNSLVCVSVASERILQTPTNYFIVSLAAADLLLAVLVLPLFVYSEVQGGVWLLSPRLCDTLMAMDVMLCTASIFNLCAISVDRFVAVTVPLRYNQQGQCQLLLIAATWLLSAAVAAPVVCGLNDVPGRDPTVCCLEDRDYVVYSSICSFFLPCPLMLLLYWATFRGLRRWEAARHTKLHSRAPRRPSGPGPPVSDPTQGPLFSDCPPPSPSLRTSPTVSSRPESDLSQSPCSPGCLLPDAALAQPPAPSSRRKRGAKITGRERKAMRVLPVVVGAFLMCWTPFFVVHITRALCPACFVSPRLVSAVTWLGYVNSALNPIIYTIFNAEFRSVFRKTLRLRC
The experiment in a line: Inhibition of rat dopamine D4 receptor.

Experiment [2] has as its target T3, Serotonin 3 (5-HT3) receptor (Rattus norvegicus, UniProt P35563+Q9JJ16).
T3 sequence (P35563 whole entry): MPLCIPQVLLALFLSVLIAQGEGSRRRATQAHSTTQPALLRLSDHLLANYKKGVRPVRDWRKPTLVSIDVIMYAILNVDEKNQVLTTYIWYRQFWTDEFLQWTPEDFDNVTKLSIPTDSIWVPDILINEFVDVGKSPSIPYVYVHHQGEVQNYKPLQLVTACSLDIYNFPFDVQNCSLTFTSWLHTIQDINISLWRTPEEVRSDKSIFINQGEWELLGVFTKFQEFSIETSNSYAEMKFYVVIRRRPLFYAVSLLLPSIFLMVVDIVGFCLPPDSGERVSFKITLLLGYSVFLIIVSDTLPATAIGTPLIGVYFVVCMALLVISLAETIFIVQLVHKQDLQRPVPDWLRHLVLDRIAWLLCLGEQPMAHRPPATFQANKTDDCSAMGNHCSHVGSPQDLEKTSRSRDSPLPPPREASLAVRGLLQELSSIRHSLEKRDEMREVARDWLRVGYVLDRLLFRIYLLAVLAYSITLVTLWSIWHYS
T3 sequence (Q9JJ16 whole entry): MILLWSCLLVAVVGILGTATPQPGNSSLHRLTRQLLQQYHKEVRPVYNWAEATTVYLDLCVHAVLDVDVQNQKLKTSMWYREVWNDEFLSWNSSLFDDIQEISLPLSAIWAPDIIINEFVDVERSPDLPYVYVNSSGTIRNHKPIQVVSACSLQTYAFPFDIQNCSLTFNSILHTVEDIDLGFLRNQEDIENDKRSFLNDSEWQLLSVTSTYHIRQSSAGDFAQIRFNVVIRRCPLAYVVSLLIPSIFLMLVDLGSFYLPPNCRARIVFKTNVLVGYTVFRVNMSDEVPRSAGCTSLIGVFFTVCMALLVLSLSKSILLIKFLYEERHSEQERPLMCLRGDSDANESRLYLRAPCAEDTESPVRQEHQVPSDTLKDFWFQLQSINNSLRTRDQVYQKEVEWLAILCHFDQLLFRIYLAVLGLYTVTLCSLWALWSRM
The experiment in a line: Inhibition against rat hydroxytryptamine 3 receptor. It is filed as protein-complex assay.

Experiment [3] addresses 5-hydroxytryptamine receptor 1B (Rattus norvegicus, UniProt P28564). In words: Inhibition of rat hydroxytryptamine 1B receptor.
Experiment [4] in a line: Inhibition of kappa opioid receptor.
Experiment [5] can be described thus: Inhibition of histamine H1 receptor.

Usually IC50 stands for the concentration that inhibits the measured activity by half.

Some results are limits rather than exact numbers.

Chain of D(3) dopamine receptor (P19020 whole entry): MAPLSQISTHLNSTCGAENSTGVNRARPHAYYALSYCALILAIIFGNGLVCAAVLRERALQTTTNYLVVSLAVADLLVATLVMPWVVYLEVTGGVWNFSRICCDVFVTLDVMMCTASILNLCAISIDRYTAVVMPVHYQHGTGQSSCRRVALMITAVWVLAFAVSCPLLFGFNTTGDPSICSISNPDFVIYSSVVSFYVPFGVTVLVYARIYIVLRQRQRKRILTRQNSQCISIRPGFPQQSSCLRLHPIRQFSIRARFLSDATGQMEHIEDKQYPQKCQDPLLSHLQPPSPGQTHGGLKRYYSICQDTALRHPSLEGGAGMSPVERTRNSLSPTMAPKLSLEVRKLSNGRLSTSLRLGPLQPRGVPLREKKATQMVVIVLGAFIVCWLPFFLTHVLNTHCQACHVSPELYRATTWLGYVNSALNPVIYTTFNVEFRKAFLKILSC
Chain of 5-hydroxytryptamine receptor 1B (P28564 whole entry): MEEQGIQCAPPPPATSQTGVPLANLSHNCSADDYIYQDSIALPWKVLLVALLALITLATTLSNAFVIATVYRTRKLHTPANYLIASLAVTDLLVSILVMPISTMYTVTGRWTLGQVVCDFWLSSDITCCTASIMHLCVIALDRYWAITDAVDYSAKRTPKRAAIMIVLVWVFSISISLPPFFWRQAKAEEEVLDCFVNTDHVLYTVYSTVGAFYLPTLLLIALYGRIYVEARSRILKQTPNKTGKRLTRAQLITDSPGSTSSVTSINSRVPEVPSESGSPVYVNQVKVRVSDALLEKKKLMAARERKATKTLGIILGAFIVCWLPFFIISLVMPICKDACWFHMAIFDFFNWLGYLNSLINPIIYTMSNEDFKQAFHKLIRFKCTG

As to `N#Cc1ccc2[nH]cc(CCCCN3CCN(c4ccc5oc(C(N)=O)cc5c4)CC3)c2c1` [VILAZODONE], the IC50 on D(3) dopamine receptor was 0.071 µM; in experiment [1], 1.98 µM; at D(4) dopamine receptor, 3.4 µM; in experiment [2], 4.3 µM; in experiment [3], 5 µM; in experiment [4] it was above 1 µM. This compound also gave a half-maximal inhibitory concentration (IC50) in experiment [5] of 0.317 µM.
